One data set addresses T1, PPARγ (Homo sapiens, UniProt P37231).
T1 sequence (P37231 1-505): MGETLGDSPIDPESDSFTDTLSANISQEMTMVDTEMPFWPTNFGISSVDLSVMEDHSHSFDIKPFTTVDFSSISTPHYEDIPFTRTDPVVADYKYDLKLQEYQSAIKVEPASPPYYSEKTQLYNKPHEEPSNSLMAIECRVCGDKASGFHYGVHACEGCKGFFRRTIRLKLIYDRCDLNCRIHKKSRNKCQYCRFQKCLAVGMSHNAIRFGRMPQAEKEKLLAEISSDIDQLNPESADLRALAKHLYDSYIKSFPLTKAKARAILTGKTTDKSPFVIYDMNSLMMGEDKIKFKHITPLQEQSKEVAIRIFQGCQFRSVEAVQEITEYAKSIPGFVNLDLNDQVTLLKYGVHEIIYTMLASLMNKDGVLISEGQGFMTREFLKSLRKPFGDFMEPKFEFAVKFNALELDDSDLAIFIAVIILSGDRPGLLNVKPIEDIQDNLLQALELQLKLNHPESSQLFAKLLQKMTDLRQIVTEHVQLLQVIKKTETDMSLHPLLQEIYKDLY
Description: PPARγ activity assay based on PEPCK expression in primary pre-adipocytes on coded carriers. Particulars: four donor samples (visceral and subcutaneous pre-adipocytes), shared fluid volume, four days.

For the next data set, the system named is HRPTE cells. Kind of data set: cytotoxicity response of HRPTE cells (death index, live/dead assay). The format is cell-based, human. Particulars: HRPTE cells in 96-well microplate wells or on coded carriers; various concentrations. As for the experimental part:
This example describes how multiplexed analysis using coded carriers may be used to study the cytotoxicity response of HRPTE cells to staurosporine, in accordance with aspects of the present teachings; see FIG. 7.
Specifically, HRPTE cells are grown directly attached to wells of a standard 96-well microplate, or on coded carriers that optionally may be placed in wells of the microplate. A “death index” (e.g., the fraction of observed cells that are dead) may be used as a measure of cytotoxicity. The death index may be computed using any suitable mechanism, such as a fluorescence-based “live/dead assay.” In an exemplary version of the assay, live cells are labeled green using a membrane-permeant calcein AM, which is cleaved by esterases in live cells to yield cytoplasmic green fluorescence, and dead cells are labeled red using a membrane-impermeant ethidium homodimer-1, which passes through the compromised membranes of dead cells to label nucleic acids with red fluorescence. […] This reduction may be particularly significant in assays on primary cells, because primary cells typically are difficult to obtain and maintain.

Data set [1] has as its system primary human renal proximal tubule epithelial (HRPTE) cells. Description: proliferative response of primary HRPTE cells (S-phase index). It counts as cell-based. The conditions noted are these: HRPTE cells in 96-well microplate wells or on coded carriers; various concentrations. As for the experimental part:
This example describes how multiplexed analysis using coded carriers may be used to assay the effects of camptothecin on the proliferative response of primary human renal proximal tubule epithelial (HRPTE) cells, in accordance with aspects of the present teachings; see FIG. 6.
Specifically, HRPTE cells are grown directly in wells of a standard 96-well microplate, to three different cell densities (indicated as the stated number of cells), or on coded carriers that optionally may be placed in wells of the microplate. An “S-phase index” (e.g., the fraction of cells in the S-phase of the cell cycle) is used as a measure of cell proliferation. […] This reduction may be particularly significant in assays on primary cells, because primary cells typically are difficult to obtain and maintain.

Description for PPARγ: This differentiation may be visualized readily and scored by staining lipid droplets that accumulate in the cytoplasm of the adipocytes during and/or after their differentiation. Furthermore, this adipocyte differentiation and/or activation of PPARγ may be followed by measuring the expression levels (RNA and/or protein) of PPARγ target genes (direct or indirect targets), such as PEPCK (phosphoenolpyruvate carboxykinsae) and/or FABP4 (fatty acid binding protein 4), among others.
Staining was via indirect immunofluorescence. Cells were counterstained with a nuclear dye (Hoechst) for data normalization, here and in other assays. […] Each sample of primary cells corresponds to pre-adipocytes isolated from visceral tissue (samples starting with the letter “V”) or isolated from subcutaneous tissue (samples starting with the letters “SC”) and were supplied by Cambrex. […] Each sample was connected to a distinct class of coded carriers (having a distinct code) to permit identification of the sample after combining the different classes of carrier and samples in a shared volume. […] Lipid accumulation and PEPCK expression were then measured with the samples still disposed in the same microplate wells. […]

On to `COc1ccc2c(c1)c(CC(=O)O)c(C)n2C(=O)c1ccc(Cl)cc1` [Indomethacin, indomethacin], for which the “induction of PEPCK expression as a measure of PPARγ activity” value at PPARγ is reported as “relatively strong induction”. With `CN[C@@H]1C[C@H]2O[C@@](C)([C@@H]1OC)n1c3ccccc3c3c4c(c5c6ccccc6n2c5c31)C(=O)NC4` [staurosporine], in the data set with HRPTE cells, the “death index (fraction of dead cells)” value is listed as “generally increases with increasing staurosporine concentration”. Turning to `CC[C@@]1(O)C(=O)OCc2c1cc1n(c2=O)Cc2cc3ccccc3nc2-1` [camptothecin], the “S-phase index as a measure of cell proliferation” value in data set [1] is “S-phase index generally decreases with increasing camptothecin concentration”.

(Values after patent US20050084914A1, “Assays with primary cells” (priority 2003, published 2005).)
